The nature of the data set: Aqueous solubility of the compound in Britton-Robinson buffer after 48 hrs at pH 6.5 by UV-vis spectrophotometry based shake flask method. The class given is physicochemical.

Each structure is given as a SMILES string. Converted amounts (≈) assume the structure as drawn.

A word on the solubility (thermodynamic): it is the concentration in solution at equilibrium with solid. The molecule `O=C(O)Cn1ccc2ccc(-c3cn(-c4ccc(O)c(F)c4)nn3)nc2c1=O` had a thermodynamic solubility at 48 h of 288 µg/mL (≈ 755 µM).

The values above are taken from ChEMBL document CHEMBL4130596, “Adding a Hydrogen Bond May Not Help: Naphthyridinone vs Quinoline Inhibitors of Macrophage Migration Inhibitory Factor” (ACS Med Chem Lett, 2017).
